According to PubChem BioAssay (NCI):
“And” between values parts separate entries of the source, which are not always exact repeats. Identical values can stand only once.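 Briefly, cells in 96-well plates were exposed to five compound concentrations for 48 h, and endpoints were estimated by linear interpolation. GI50 is the concentration that inhibits growth by half. At the TGI there is no net growth.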

Columns and labels:
Test in all cases: inhibition of tumour cell growth, NCI panel, 48 h
786-0 renal = system: 786-0 renal
RPMI-8226 leukemia = system: RPMI-8226 leukemia
HT29 colon = system: HT29 colon
NCI/ADR-RES ovarian = system: NCI/ADR-RES ovarian
DU-145 prostate = system: DU-145 prostate
SF-539 CNS = system: SF-539 CNS
HS 578T breast = system: HS 578T breast
MDA-MB-435 = system: MDA-MB-435
SF-295 CNS = system: SF-295 CNS
SK-MEL-2 melanoma = system: SK-MEL-2 melanoma

| SMILES | GI50 (786-0 renal) [µM] | TGI (786-0 renal) | GI50 (RPMI-8226 leukemia) [µM] | TGI (RPMI-8226 leukemia) | GI50 (HT29 colon) [µM] | TGI (HT29 colon) | GI50 (NCI/ADR-RES ovarian) [µM] | TGI (NCI/ADR-RES ovarian) [µM] | GI50 (DU-145 prostate) [µM] | TGI (DU-145 prostate) [µM] | GI50 (SF-539 CNS) [µM] | TGI (SF-539 CNS) | GI50 (HS 578T breast) [µM] | TGI (HS 578T breast) [µM] | GI50 (MDA-MB-435) [µM] | TGI (MDA-MB-435) [µM] | GI50 (SF-295 CNS) [µM] | TGI (SF-295 CNS) | GI50 (SK-MEL-2 melanoma) [µM] | TGI (SK-MEL-2 melanoma) |
| --- | --- | --- | --- | --- | --- | --- | --- | --- | --- | --- | --- | --- | --- | --- | --- | --- | --- | --- | --- | --- |
| COc1cc2c3c(n(CCCCOC(=O)C(F)(F)F)c(=O)c2cc1OC)-c1cc2c(cc1C3=O)OCO2 | 0.982 | 7.65 µM | > 20.4 | > 100 µM | > 100 | > 100 µM | > 100 | > 100 | > 80 | > 100 | > 100 | > 100 µM | > 93.1 | > 100 | > 100 | > 100 | > 41.7 | > 100 µM | > 100 | > 100 µM |
| Cn1cc(C2=C(c3cccc4ccccc34)C(=O)NC2=O)c2ccccc21 | 7.99 | > 25 µM | 8.18 | > 19.9 µM | 7.45 | > 25 µM | 9.59 | > 25 | 12.3 | > 25 | 5.99 | 14.2 µM | 6.69 | > 24 | 6.06 | > 25 | 8.26 | > 23.1 µM | 7.33 | 18.6 µM |
| O=C1NN(c2ccc(C(=O)O)cc2)C(=O)/C1=C\c1ccc([N+](=O)[O-])o1 | > 100 | > 100 µM | 30.6 | 83.8 µM | 18.6 | 35.8 µM | 89.3 | > 100 | 85.6 | > 100 | > 100 | > 100 µM | > 100 | > 100 | 32.1 | > 100 | > 100 | > 100 µM | 83.1 | > 100 µM |
| COc1ccc2c(c1)c(-c1ccc(-c3cn(S(=O)(=O)c4ccccc4)c4ccc(OC)cc34)s1)cn2S(=O)(=O)c1ccccc1 | > 100 | > 100 µM | > 100 | > 100 µM | > 100 | > 100 µM | > 100 | > 100 | > 100 | > 100 | > 100 | > 100 µM | > 100 | > 100 | > 100 | > 100 | > 100 | > 100 µM | > 100 | > 100 µM |
| Oc1ccc(-c2nnc3sc(-c4ccc(F)c(Oc5ccccc5)c4)nn23)cc1 | 21.8 | 50.3 µM | 28.4 | > 100 µM | 27.4 | > 100 µM | 66.5 | > 100 | 35 | > 100 | 24.2 | 65 µM | 19.8 | 51.4 | 68.6 | > 100 | 23.2 | 59.9 µM | > 100 | > 100 µM |
| CCCN(CCC)C(=O)C1=Cc2ccc(-c3ccc(C(=O)N4CCCC4)cc3)cc2N=C(N)C1 | 14.7 | 42.3 µM | 7.66 | 36.4 µM | 4.28 | 28.6 µM | 19.4 | 62.2 | 20.6 | 91.1 | 11.7 | 27 µM | 16 | 59 | 2.51 | 7.58 | 4.92 | 24.5 µM | 10.6 | 26.2 µM |
| COc1cc(-c2nc(Nc3nc4ccccc4[nH]3)nc(N)c2C#N)cc(OC)c1OC | 20.2 | > 100 µM | 12.5 | > 100 µM | 0.877 | 24.1 µM | > 100 | > 100 | 10.9 | 35.6 | 10.7 | 36.2 µM | 0.33 | > 100 | 0.0886 | 16.7 | 0.191 |  | 2.69 | 34 µM |
| COc1cc(C(=O)c2ccc3c(c2)OCO3)cc(OC)c1OC | 10.5 | > 100 µM | 2.64 | > 42 µM | 0.502 | 15.5 µM | 0.987 | > 100 | 3.51 | > 65.7 | 1.95 | 7.52 µM | 2.54 | > 26.9 | 0.2 | 0.502 | 1.55 |  | 2.53 | > 100 µM |
| Cn1ccnc1C(=O)/C=C/c1ccc(C(=O)Nc2ccc(Cl)cc2)cc1 | 0.761 | 1.82 µM | 0.431 | 1.35 µM | 0.946 | > 33.3 µM | 1.06 | > 33.3 | 1.32 | > 33.3 | 0.626 | 1.42 µM | 0.919 | > 33.3 | 1.37 | > 33.3 | 1.46 | 6.11 µM | 7.68 | > 33.3 µM |
| COC(=O)Nc1nc2ccc(Oc3ccc(NC(=O)Nc4cccc(C(=O)O)c4)cc3)cc2[nH]1 | 10.5 | > 25 µM | 8.03 | > 25 µM | 7.35 | > 25 µM | 6.13 | > 17.4 | 8.07 | > 25 | 4.95 | > 20.9 µM | 4.28 | 24.5 | 1.32 | 6.03 | 5.61 | > 21.7 µM | 9.24 | > 25 µM |
| Cn1nccc1Nc1nccc(-c2cc3c(s2)C(C)(C)N(CCN2CCOCC2)C3=O)n1 | 14.7 | > 100 µM | 23.3 | > 100 µM | 0.277 | > 100 µM | 56 | > 100 | 25.8 | > 100 | 27.9 | > 100 µM | 15.9 | > 100 | 0.852 | > 100 | > 89.9 | > 100 µM | 0.402 | 6.74 µM |
| CC1=CC(=NC(=O)CBr)C=C/C1=N\S(=O)(=O)c1ccccc1 | 3.37 | 10.8 µM | 2.9 | 9.35 µM | 2.58 | 6.7 µM | 3.38 | 14 | 3.63 | 12.2 | 3.49 | 12 µM | 5.03 | 35.2 | 3.4 | 13.7 | 15.8 | 33.1 µM | 4.04 | 16 µM |
| CC(=O)N1N=C2/C(=C/c3ccccc3)CC(C)CC2C1c1ccccc1 (stereo not drawn) | 17.7 | 34.8 µM | 9.54 | 76.1 µM | 12.9 | 29.9 µM | 12.5 | 28.8 | 16.1 | 33.5 | 17.4 | 32.7 µM | 15.4 | 34.6 | 11.2 | 27.7 | 15.9 | 35.1 µM | 18.7 | 46.3 µM |
| Cc1cc(N2CCCCC2)nc(N(CCCNc2ccnc3cc(Cl)ccc23)Cc2ccco2)n1 | 1.61 | 3.27 µM | 1.83 | 4.46 µM | 1.2 | 4.95 µM | 1.43 | 3.87 | 3.14 | 12.9 | 1.61 | 3.19 µM | 3.02 | 11.4 | 1.65 | 3.68 | 1.29 | 3.59 µM | 2.4 | 6.25 µM |
| CCOc1cccc(/C=N/NC(=O)c2ccc(Nc3ccnc(C(F)(F)F)c3)cc2)c1O | 0.951 | > 94.3 µM | 0.359 | 20.6 µM | 4.38 | > 73.5 µM | 3.62 | > 63.2 | 2.46 | > 100 | 1.1 | 11.6 µM | 6.31 | > 100 | 6.19 | > 100 | 1.28 | 40.6 µM | 3.13 | > 45.4 µM |
| c1ccc(Cn2cc3c(c2-c2ccccc2)CCc2cnoc2-3)cc1 | 6.7 | 69.1 µM | 3.1 | > 100 µM | 3.11 | 33.4 µM | 2.75 | 9.53 | 20.1 | > 100 | 5.34 | 38.9 µM | 3.88 | 26.4 | 1.89 | 7.18 | 3.16 | 31.5 µM | 11.5 | > 100 µM |
| CCN(CC)CCCC(C)Nc1cnc(C(=O)Nc2ccc(Cl)c3cccnc23)cn1 (stereo not drawn) | 1.4 | 2.87 µM | 1.74 | 3.92 µM | 1.33 | 3.26 µM | 2.55 | 9.33 | 4.12 | 15.8 | 1.71 | 3.12 µM | 3.06 | 13 | 1.81 | 3.43 | 2.11 | 4.92 µM | 1.95 | 4.34 µM |
| O=C1CC(c2ccc(N3CCOCC3)cc2)(c2ccsc2)NC(=O)C1Sc1ccccc1Cl (stereo not drawn) | 6.53 | > 100 µM | 31.6 | > 100 µM | 46.4 | > 100 µM | 46.7 | > 100 | 85 | > 100 | 56.4 | > 100 µM | 3.66 | > 100 | 88.6 | > 100 | 67 | > 100 µM | 49.3 | > 100 µM |
| CN(C)c1ccc(N2Cc3ccccc3OC3=C2C(=O)c2c(O)ccc(O)c2C3=O)cn1 | 0.204 | 0.423 µM | 0.235 | 0.797 µM | 0.232 | 0.578 µM | 0.284 |  | 0.223 | 0.51 | 0.225 | 0.602 µM | 0.444 | 26.1 | 0.237 | 0.544 | 1.8 | 4.32 µM | 0.541 | 1.49 µM |
| COC(=O)NC1C(C)OC(OC2C/C=C(/C)C3C=CC4C(OC5CC(OC6CC(O)C(OC7CC(O)C(OC)C(C)O7)C(C)O6)C(O)C(C)O5)C(C)CC(C)C4C3(C)/C(O)=C3\C(=O)OC4(CC(C)C(CO)=CC4/C=C\2C)C3=O)CC1(C)[N+](=O)[O-] (stereo not drawn) | 16.8 | 21.9 µM and 32.3 µM | 15.7 | 50 µM and 26.9 µM | 8.34 | 15.9 µM and 35.9 µM | > 50 | > 100 |  | 27.5 | 11.6 | 24.9 µM and 37.7 µM |  | 40.4 |  | 17 |  | 50 µM and 38.9 µM | 9.66 | 17.4 µM and 29.6 µM |
| Cn1cncc1[C@@](N)(c1ccc(Cl)cc1)c1ccc2c(c1)c(-c1cccc(Cl)c1)cc(=O)n2C | 3.08 | 14 µM | 1.58 | 9.79 µM | 1.27 | 6.24 µM | 2.54 | 12 | 1.81 | 3.66 | 2.81 | 9.47 µM | 2.77 | 15.5 | 0.172 | 1.93 | 0.534 | 6.35 µM | 1.39 | 4.99 µM |
| C=C1C(=O)O[C@@H]2C[C@@]3(C)CCC[C@H](C)C3=C[C@H]12 |  | 12.7 µM |  | 6.21 µM |  | 16.1 µM |  | 27.9 |  | 24.3 |  | 22.5 µM |  | 19.1 |  | 17.2 |  | 34.5 µM |  | 14.7 µM |
| Oc1ccc2cc(Br)ccc2c1-c1c(O)ccc2cc(Br)ccc12 | 2.38 | 4.64 µM | 2.81 | 9.1 µM | 1.75 | 3.34 µM | 2.97 | 9.22 | 3.29 | 9.34 | 3.34 | 12 µM | 3.7 | 23.3 | 3.04 | 11.2 | 2.46 | 6.79 µM | 3.82 | 13.5 µM |
| Nc1nc(N)c(N=O)c(Nc2ccc(O)cc2)n1 |  | > 95.5 µM |  | > 68.2 µM |  | > 100 µM |  | > 50.4 |  | > 100 |  | 16.3 µM |  | 58.8 |  | > 100 |  | > 65.1 µM |  | > 100 µM |
| O=C(Nc1ccccc1O)c1cccc(NC2=C(Cl)C(=O)N(Cc3ccccc3)C2=O)c1 | 2.3 | 6.78 µM | 0.778 | 3.4 µM | 7.05 | > 100 µM | 3.35 | 11.8 | 7.07 | 20.6 | 10.7 | 25.4 µM | 5.28 | 17.8 | 6.03 | 17.7 | 4.46 | 12.5 µM | 6.07 | 24.1 µM |
